Assay results from patent US20210002623A1, “AMINOPEPTIDASE AND ITS USES” (Centre national de la recherche scientifique, priority 2017, published 2021).

Columns and labels:
MjTET [1] = biological target: T1, MjTET (Methanocaldococcus jannaschii, UniProt Q57975); test: Effect of metal cations on MjTET activity; type: biochemical; details: 5 mM Leu-pNA, pH 8.5, 75° C., 5 min
T1 construct: made in house; host or cells: Escherichia coli ArcticExpress (DE3)-RIL
T1 sequence (Q57975 1-350): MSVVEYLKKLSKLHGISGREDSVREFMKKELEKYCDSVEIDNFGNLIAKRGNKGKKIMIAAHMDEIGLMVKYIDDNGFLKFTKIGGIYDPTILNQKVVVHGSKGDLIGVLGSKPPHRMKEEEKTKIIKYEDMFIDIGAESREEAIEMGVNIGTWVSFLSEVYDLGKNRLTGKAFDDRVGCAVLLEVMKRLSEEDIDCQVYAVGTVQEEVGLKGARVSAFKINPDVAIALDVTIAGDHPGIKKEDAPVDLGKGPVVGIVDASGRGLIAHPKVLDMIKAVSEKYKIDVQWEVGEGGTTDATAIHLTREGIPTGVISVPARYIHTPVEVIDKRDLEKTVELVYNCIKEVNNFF
Description: The metal cations XCl2 were incubated at 0.1 mM concentration with 4 μg/mL of MjTET and 5 mM of Leu-pNA in 50 mM CHES, 150 mM KCl, pH 8.5 for 5 min at 75° C. To assess the effect of metal cations on MjTET activity, the enzymatic reaction was followed as described before.

MjTET [2] = biological target: T1, MjTET; test: Effect of inhibitors on MjTET activity (Leu-pNA hydrolysis); type: biochemical; details: 5 mM Leu-pNA, 0.1 mM CoCl2, pH 8.5, 85° C., 5 min
Description: The inhibitory effect of EDTA, Amastatine and Bestatine was tested on the MjTET enzymatic activity. 4 μg/mL of MjTET were incubated with each inhibitor separately in the presence of 5 mM Leu-pNA, 50 mM CHES, 150 mM KCl, 0.1 mM CoCl2, pH 8.5 at 85° C. for 5 min. Three replicates (with inhibitor) and two controls (without inhibitor) were assayed for each experimental point.

[Cl-].[Cl-].[Co+2] [cobalt ions]
effect on MjTET LAP activity (MjTET [1]; 0.1 mM metal cation): increase of LAP activity

[Cl-].[Cl-].[Zn+2] [ZnCl2]
effect on MjTET LAP activity (MjTET [1]; 0.1 mM ZnCl2): significant inhibition

CC(C)C[C@H](NC(=O)[C@@H](O)[C@H](N)Cc1ccccc1)C(=O)O [bestatine]
inhibition of MjTET LAP activity (MjTET [2]; 1 mM bestatine): completely inhibited

O=C(O)CN(CCN(CC(=O)O)CC(=O)O)CC(=O)O [EDTA]
inhibition of MjTET enzymatic activity (MjTET [2]; 5 mM EDTA): completely inhibited

CC(C)C[C@@H](N)[C@H](O)C(=O)N[C@H](C(=O)N[C@H](C(=O)N[C@@H](CC(=O)O)C(=O)O)C(C)C)C(C)C [amastatine]
inhibition of MjTET LAP activity (MjTET [2]; 0.2 mM amastatine): completely inhibited
